Measurements taken from PMC9180926, “Discovery of Novel 3-Hydroxyquinazoline-2,4(1H,3H)-Dione Derivatives: A Series of Metal Ion Chelators with Potent Anti-HCV Activities” (International Journal of Molecular Sciences, 2022).

Columns and labels:
[1] = Metal ion chelation assay using UV-Vis spectrophotometry; format: physicochemical
Excerpt: The chelation rules of the 3-hydroxyquinazoline-2,4(1H,3H)-diones with magnesium ions were explored by UV-Vis spectrophotometry, which was widely used to study the binding properties of compounds with metal ions in vitro [56, 57, 58]. For the sake of eliminating the interference of heteroaryl groups on the determination of metal ion chelation, the representative compound 21e with phenyl group substituted at the C-7 position was selected to study its chelation ability with Mg^2+ under different conditions. […] This is probably because compound 21e mainly exists in the free molecular state with the N-hydroxyl group protonated in methanol, which is difficult to chelate with Mg^2+. Intriguingly, after the introduction of 5 mm NaOAc to the methanol solution containing 21e, the effect of MgCl2 on the absorbance of the system totally changed (Figure 5B). […] Remarkably, merely 20 μM MgCl2 was able to increase the absorbance by more than 0.5. […] A reasonable logic is that the addition of NaOAc raised the pH of the methanol solution, resulting in partial ionization of compound 21e at the N-hydroxyl group. Subsequently, 21e in the ionic state formed a chelation complex with Mg^2+, which increased the absorbance of the solution.
With the aim of verifying whether 21e has the ability to chelate with Mg^2+ in the ionic state, we further investigated the influence of various concentrations of NaOAc on the differential UV-Vis spectra caused by the addition of MgCl2. […] Moreover, the magnitude of the variation in the spectrum is proportional to the concentration of NaOAc. […] The comparison between different UV-Vis spectra also verified that compound 21e could chelate with Mg^2+ in the N-hydroxyl deprotonated form rather than the free molecular state.
2 mL of methanol solution containing the components in the sample or control group (Table 4) was added to a quartz cuvette (BQ-114-2, Chongqing Xinweier Glass Co., Ltd., Chongqing, China). The absorbance at 200–400 nm was scanned by a UV-Vis spectrophotometer (Agilent Cary 60, Agilent Technologies, Santa Clara, CA, USA), and the blank methanol was used for baseline calibration. The absorbance of the control group was subtracted from that of the sample group at the corresponding wavelength to obtain the differential UV-Vis spectra, which were used to analyze the chelating property of the compound with Mg^2+.

[2] = test system: HCV 1b replicon cells (Huh-7.5.1); test: Anti-HCV assay, HCV 1b replicon cells with luciferase reporter; format: cell-based, hepatitis C virus (HCV) subtype 1b; conditions: Hepatitis C virus, Huh-7.5.1, 72 h, inhibitory rate at 5 μM

With `O=c1[nH]c2cc(-c3ccccc3)ccc2c(=O)n1O` [21e, 3-Hydroxy-7-phenylquinazoline-2,4(1H,3H)-dione] the “absorbance difference at 254 nm between control group and sample group” value ([1]; 50 μM compound in methanol, no NaOAc, MgCl2 up to 640 μM) was “no more than 0.1”, the “increase of absorbance at 254 nm” value ([1]; 50 μM compound, 80 μM MgCl2, 200 μM to 5 mm NaOAc in methanol) was 0.8–1.2 and the “increase of absorbance at 254 nm” value ([1]; 50 μM compound, 5 mm NaOAc in methanol, 20 μM MgCl2) was “more than 0.5”. For the same compound, the “Mg^2+ concentration at which absorbance change reaches equilibrium” value ([1]; 50 μM compound, 5 mm NaOAc in methanol, 254 nm) was “about 400 μM” and the inhibition at 5 µM [2] was 39.5%.
